Source: ChEMBL document CHEMBL1201862, “PubChem BioAssay data set” (2004)
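Results reflect a 48-hour exposure of cells in 96-well plates to compound at five concentrations. GI50 marks 50% less growth.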 The source made the active and inactive calls. No stated cut-off is given here; in the data, active = GI50 up to about 1.1 µM and inactive = higher.

What was measured:
Assay in all cases: NCI anticancer screen, dose series, 48 h
CAKI-1 = tested on: CAKI-1
SW-620 = tested on: SW-620
SK-MEL-2 = tested on: SK-MEL-2
DU-145 = tested on: DU-145
SK-MEL-28 = tested on: SK-MEL-28
OVCAR-5 = tested on: OVCAR-5
CCRF-CEM = tested on: CCRF-CEM
UO-31 = tested on: UO-31
OVCAR-8 = tested on: OVCAR-8
EKVX = tested on: EKVX
SK-OV-3 = tested on: SK-OV-3
T47D = tested on: T47D
SF-295 = tested on: SF-295
PC-3 = tested on: PC-3
HT-29 = tested on: HT-29
HCT-116 = tested on: HCT-116
SR = tested on: SR
OVCAR-4 = tested on: OVCAR-4
OVCAR-3 = tested on: OVCAR-3
SF-539 = tested on: SF-539

Measured: GI50

Nc1c(O)c(C(=O)O)cc2ccccc12
inactive: CAKI-1 22.6 µM | SW-620 18.3 µM | SK-MEL-2 17.7 µM | DU-145 17.9 µM | SK-MEL-28 37.2 µM | OVCAR-5 18.9 µM | CCRF-CEM 37.8 µM | UO-31 47.3 µM | OVCAR-8 44.3 µM | EKVX 53.8 µM | SK-OV-3 > 100 µM | T47D 37 µM | SF-295 51.8 µM | PC-3 39.1 µM | HT-29 17 µM | HCT-116 17.5 µM | SR 39.4 µM | OVCAR-4 22.9 µM | OVCAR-3 24.3 µM | SF-539 40.6 µM

O=C1c2ccccc2C(=O)N1C(=S)c1ccccc1
inactive: CAKI-1 > 100 µM | SW-620 > 100 µM | SK-MEL-2 > 100 µM | DU-145 > 100 µM | SK-MEL-28 > 100 µM | OVCAR-5 > 100 µM | CCRF-CEM > 100 µM | UO-31 > 100 µM | OVCAR-8 > 100 µM | EKVX > 100 µM | SK-OV-3 > 100 µM | T47D > 100 µM | SF-295 > 100 µM | PC-3 > 100 µM | HT-29 > 100 µM | HCT-116 > 100 µM | SR > 100 µM | OVCAR-4 > 100 µM | OVCAR-3 > 100 µM | SF-539 > 100 µM

CC1(C)CC2=NC(SSC3=C(C#N)C(c4ccc(Br)cc4)C4=C(O)CC(C)(C)CC4=N3)=C(C#N)C(c3ccc(Br)cc3)C2=C(O)C1 (stereo not drawn)
inactive: CAKI-1 > 100 µM | SW-620 > 100 µM | SK-MEL-2 > 100 µM | DU-145 > 100 µM | SK-MEL-28 > 100 µM | OVCAR-5 > 100 µM | CCRF-CEM > 100 µM | UO-31 > 100 µM | OVCAR-8 > 100 µM | EKVX > 100 µM | SK-OV-3 > 100 µM | T47D > 100 µM | SF-295 > 100 µM | PC-3 > 100 µM | HT-29 > 100 µM | HCT-116 > 100 µM | SR 48.3 µM | OVCAR-4 > 100 µM | OVCAR-3 > 100 µM | SF-539 > 100 µM

c1ccc(-c2cn3c(nc4ccccc43)c(-c3ccccc3)n2)cc1
inactive: CAKI-1 > 48.9 µM | SW-620 > 100 µM | SK-MEL-2 30.1 µM | DU-145 > 100 µM | SK-MEL-28 > 100 µM | OVCAR-5 > 54.2 µM | CCRF-CEM > 100 µM | UO-31 37.7 µM | OVCAR-8 13.3 µM | EKVX > 100 µM | SK-OV-3 10.2 µM | T47D > 39.6 µM | SF-295 14.8 µM | PC-3 > 57.7 µM | HT-29 71 µM | HCT-116 > 86.9 µM | SR > 100 µM | OVCAR-4 4.56 µM | OVCAR-3 > 100 µM | SF-539 27.9 µM

CC(N/N=N/c1ccc(-c2nc3ccccc3[nH]2)cc1)C(=O)O (stereo not drawn)
inactive: CAKI-1 42.7 µM | SW-620 29.8 µM | SK-MEL-2 59.3 µM | DU-145 49.4 µM | SK-MEL-28 > 100 µM | OVCAR-5 > 100 µM | CCRF-CEM 3.18 µM | UO-31 39.1 µM | OVCAR-8 22.2 µM | EKVX 31.8 µM | SK-OV-3 > 100 µM | T47D 16.3 µM | SF-295 19.6 µM | PC-3 25.6 µM | HT-29 29.5 µM | HCT-116 28.9 µM | SR 2.4 µM | OVCAR-4 37.6 µM | OVCAR-3 18.6 µM | SF-539 55 µM

CC(C)C[C@H]1[C@@H](OCc2ccccc2)COS(=O)(=O)N1[C@H](C)c1ccccc1
inactive: CAKI-1 > 100 µM | SW-620 > 100 µM | SK-MEL-2 44.6 µM | DU-145 37.9 µM | SK-MEL-28 > 100 µM | OVCAR-5 > 100 µM | CCRF-CEM 8.71 µM | UO-31 9.95 µM | OVCAR-8 > 61.5 µM | EKVX 22.1 µM | SK-OV-3 > 93.1 µM | T47D 2.9 µM | SF-295 9.12 µM | PC-3 7.38 µM | HT-29 26.9 µM | HCT-116 5.24 µM | SR 3.24 µM | OVCAR-4 > 100 µM | OVCAR-3 20.6 µM | SF-539 > 100 µM

COC1N(C2CC(O)C(CO)O2)C(=O)NC(=O)C1(F)Br (stereo not drawn)
active: SF-539 0.239 µM
inactive: CAKI-1 > 19.9 µM | SW-620 32.8 µM | SK-MEL-2 > 92 µM | DU-145 4.72 µM | SK-MEL-28 9.86 µM | OVCAR-5 77.8 µM | CCRF-CEM 3.53 µM | UO-31 10.3 µM | OVCAR-8 4.02 µM | EKVX 67.1 µM | SK-OV-3 > 50 µM | T47D > 72.3 µM | SF-295 2.83 µM | PC-3 51.3 µM | HT-29 20 µM | HCT-116 7.8 µM | SR 6.18 µM | OVCAR-4 > 50 µM | OVCAR-3 10.7 µM

O=C1C(Br)=C(C2=CC(=P(c3ccccc3)(c3ccccc3)c3ccccc3)C=C2)C(=O)C(Br)=C1C1=CC(=P(c2ccccc2)(c2ccccc2)c2ccccc2)C=C1
inactive: CAKI-1 > 100 µM | SW-620 19.4 µM | SK-MEL-2 > 100 µM | DU-145 > 100 µM | SK-MEL-28 41.8 µM | OVCAR-5 17.9 µM | CCRF-CEM > 100 µM | UO-31 > 100 µM | OVCAR-8 > 100 µM | EKVX 19.9 µM | SK-OV-3 > 100 µM | T47D > 100 µM | SF-295 > 100 µM | PC-3 > 100 µM | HT-29 > 100 µM | HCT-116 99.1 µM | SR > 100 µM | OVCAR-4 76 µM | OVCAR-3 40.2 µM | SF-539 > 100 µM

CN1CCCCC1CCN1c2ccccc2Sc2ccc([S+](C)[O-])cc21 (stereo not drawn) [MESORIDAZINE]
inactive: CAKI-1 > 100 µM | SW-620 > 100 µM | SK-MEL-2 > 100 µM | DU-145 > 100 µM | SK-MEL-28 > 100 µM | OVCAR-5 > 100 µM | CCRF-CEM > 100 µM | OVCAR-8 > 100 µM | EKVX > 100 µM | SK-OV-3 > 100 µM | T47D > 100 µM | SF-295 > 100 µM | PC-3 > 100 µM | HT-29 > 100 µM | HCT-116 > 100 µM | SR > 100 µM | OVCAR-4 > 100 µM | OVCAR-3 > 100 µM | SF-539 > 100 µM

O=c1[nH]c(=O)n(C2CC(O)C(CO)O2)cc1/N=N/NCCCc1ccccc1 (stereo not drawn)
active: UO-31 < 0.01 µM
inactive: CAKI-1 > 100 µM | SK-MEL-2 > 100 µM | DU-145 > 100 µM | SK-MEL-28 > 100 µM | OVCAR-5 > 100 µM | CCRF-CEM > 100 µM | OVCAR-8 > 100 µM | EKVX > 100 µM | SK-OV-3 > 100 µM | T47D > 100 µM | SF-295 > 100 µM | PC-3 > 100 µM | HT-29 > 100 µM | HCT-116 > 100 µM | SR > 100 µM | OVCAR-4 > 100 µM | OVCAR-3 > 100 µM | SF-539 > 100 µM
